US20170121683A1, “ARYL HYDROCARBON RECEPTOR DISRUPTION AND ENHANCEMENT” (priority 2015, published 2017)

Experiments:
[1] = system: AHR-target genes (CYP1A1 and CYP1B1) in H9 hESCs; test: qPCR of AHR downstream gene targets in undifferentiated hESCs; assay type: cell-based, human; conditions: 1 μM SR-1 or 10 nM TCDD for 96 hours, compared to DMSO controls
Method: Undifferentiated H9 hESCs were treated with either DMSO (vehicle), 1 μM SR-1, or 10 nM TCDD for 96 hours in hESC growth media. Quantitative polymerase chain reaction analysis for AHR and two downstream effector gene targets (CYP1A1 and CYP1B1) are shown.
FIG. 8A. Non-adherent hematopoietic progenitor cells derived from hESCs were harvested at Day 6+3, Day 6+5, Day 6+7, and Day 6+9 time points and probed for gene expression by quantitative real-time PCR (qPCR). For each gene, Ct values were normalized to GAPDH at each time point and data is presented as relative fold-change as compared to undifferentiated hESCs. […] FIG. 8B Undifferentiated hESCs were cultured in the presence of 1 μM SR-1, 10 nM TCDD, or DMSO vehicle control for 96 hours and probed for gene expression by qPCR. For each gene, Ct values were normalized to GAPDH at each time point and data is presented as relative fold-change as compared to DMSO treated hESCs. n=3, error bars represent SEM, *p<0.05 assessed by two-way ANOVA+Tukey-Kramer multiple comparisons post-hoc test. FIG. 8C. Both adherent and non-adherent cell fractions treated with either DMSO, SR-1, or TCDD were harvested at Day 6+3, Day 6+6, and Day 6+9 and probed for viability with Sytox Blue Live/Dead Stain. Total percentage of viable cells for each group and time point are plotted. n=3.
H9 human embryonic stem cells (H9 hESCs; University of Wisconsin, Madison, Wis.) were adapted to passage as single cells using TrypLE (Invitrogen, Carlsbad, Calif.) as previously described (Ng et al. Nat. Protoc. 3, 768-76 (2008)). H9 hESCs were maintained on irradiated mouse embryonic fibroblasts in ES cell growth medium including Dulbecco's modified Eagle's medium (DMEM)/Ham's F-12 medium (F12) (Invitrogen) supplemented with 15% Knockout Serum Replacer (Invitrogen), 1 mM L-glutamine (Invitrogen), 0.1 mM β-mercaptoethanol (Sigma Aldrich, St. Louis, Mo.), 1% minimum essential medium nonessential amino acids (Invitrogen), 4 ng/mL basic fibroblast growth factor (R&D Systems Inc., Minneapolis, Minn.), and 1% penicillin-streptomycin (Invitrogen) incubated at 37° C. in a humidified atmosphere containing 5% CO2. Single-cell adapted hESCs were subjected to hemato-endothelial differentiation as spin embryoid bodies (“spin-EBs”), also previously described (Ng et al. Nat. Protoc. 3, 768-76 (2008); Knorr et al. Stem Cells Dev. 22, 1861-9 (2013); Ferrell et al., Stem Cells 33(4), 1130-41 (2015)). […]

H9 hESCs = test: NK cell differentiation from hESCs, flow cytometry (Example 1); assay type: cell-based, human; conditions: 1 μM SR-1 or 10 nM TCDD in NK cell differentiation conditions, n=2
Method: H9 hESCs were differentiated as spin EB exposed to Stage I mesodermal induction media for 11 days and transferred to NK-cell differentiation media with either DMSO, 1 μM SR-1, or 10 nM TCDD treatment for an additional 14 and 21 days. At the indicated time points, non-adherent cells were harvested and analyzed for NK-cell immunophenotype (CD56^+CD45^+) by flow cytometry. Representative flow cytometry plots are shown from two biologically independent experiments.
H9 hESCs were differentiated into NK cells as previously described (Ni et al. Embryonic Stem Cell Immunobiol. Methods Protoc. Methods Mol. Biol. 1029, 33-41 (2013)). In brief, H9 hESCs were aggregated as spin-EBs and differentiated in Stage I mesodermal induction media for 11 days, with one-half media change with fresh cytokines on Day 6. […]
Harvested cells were incubated with PE-Cy7 CD34 (BD Biosciences, San Jose, Calif.) in conjunction with APC CD31, APC CD41a, APC CD43, or APC CD45 for 30 minutes at 4° C. in FACS buffer (DPBS containing 2% fetal bovine serum and 0.1% sodium azide). […] Cells were analyzed using an LSRII flow cytometer (BD Biosciences) and data were analyzed using FlowJo software (TreeStart, Ashland, Oreg.).

SMILES	expression of CYP1A1 [1]	expression of CYP1B1 [1]	CD56+CD45+ NK cells (H9 hESCs)
CC(C)n1cnc2c(NCCc3ccc(O)cc3)nc(-c3csc4ccccc34)nc21 [SR-1, StemReginin-1]	reduced expression	reduced expression	26.4%
Clc1cc2c(cc1Cl)Oc1cc(Cl)c(Cl)cc1O2 [TCDD, 2,3,7,8-tetrachlorodibenzo-p-dioxin]	significantly increased expression	significantly increased expression	6.7%
